Source: EP0303483A2, “Novel lymphokine and compositions thereof” (THE UNIVERSITY OF BRITISH COLUMBIA, priority 1987, dated 1989)

Tested on: BDF1 spleen cells
Assay: CTL induction, PHA-P-mediated cytotoxicity assay (51Cr-labelled P815 targets), BDF1 spleen cells
Type: cell-based, mice
Details: 5 x 10³ BDF1 spleen cells
Description: Cultures and Assays: The culture medium used was Iscove's Modified Dulbecco's medium supplemented with 10% fetal bovine serum (Bocknek, Rexdale, Ontario), 5 x 10⁻⁵M 2-mercaptoethanol, 50 U/ml of Penicillin and 50 µg/ml streptomycin. All cultures were incubated at 37°C in 5% CO₂ in humid air.
For CTL assays, cultures were set up by incubating the indicated number of spleen cells, lymph node cells or thymocytes with the appropriate lymphokine in conical bottomed microtiter plates (Flow Laboratories, #76-023-05) as previously described by Teh et al, 1983, supra. Five days later the cultures were assessed for cytotoxic activity in phytohemaglutinin (PHA-P)-mediated cytotoxicity assay as described by Bevan and Cohn, J. Immunol 1975 114:559. This assay detects CTL of all specificities. A total of 3 x 10³ ⁵¹Cr-labelled P815 (H-2^d) mastocytoma target cells (available from ATCC®) and 10 µg/ml of PHA-P were added to each well. Spontaneous release during the 3.5 hr assay period was about 10% of the maximum releasable counts.

SMILES: CCCCCCCCCCCCCC(=O)O[C@@H]1[C@@H](C)[C@@]2(O)[C@@H](C=C(CO)C[C@]3(O)C(=O)C(C)=C[C@@H]23)[C@@H]2C(C)(C)[C@]12OC(C)=O [PMA, phorbol-12-myristate-13-acetate]
- % specific lysis (M SE) (PMA 0.03 ng/ml with rIL-2 20 U/ml): 3.5 ± 1.5%
- % specific lysis (M SE) (PMA 0.1 ng/ml alone): -2.2 ± 1.4%
- % specific lysis (M SE) (PMA 0.1 ng/ml with rIL-2 20 U/ml): 15.7 ± 5.1%
- % specific lysis (M SE) (PMA 0.3 ng/ml alone): -3.2 ± 1.7%
- % specific lysis (M SE) (PMA 0.3 ng/ml with rIL-2 20 U/ml): 14.8 ± 3.3%
- % specific lysis (M SE) (PMA 1.0 ng/ml alone): -2.5 ± 0.9%
- % specific lysis (M SE) (PMA 1.0 ng/ml with rIL-2 20 U/ml): 2.8 ± 1.3%
- % specific lysis (M SE) (PMA 3.0 ng/ml alone): -1.0 ± 1.8%
- % specific lysis (M SE) (PMA 3.0 ng/ml with rIL-2 20 U/ml): 4.3 ± 1.4%
- % specific lysis (M SE) (PMA 10.0 ng/ml alone): -0.9 ± 1.6%
- % specific lysis (M SE) (PMA 10.0 ng/ml with rIL-2 20 U/ml): -0.4 ± 0.9%
